The record followed here is publication PMC12728570, “Sphingomyelin synthase inhibitors from edible mushrooms prevent overweight and improve vitamin D homeostasis in a mouse model of diet-induced obesity” (Frontiers in Nutrition, 2025).

Like-named read-outs stand apart in the source and are kept apart here.

The test system of experiment [1] is T1, SMS2 (sphingomyelin synthase 2).
T1 construct: gene SGMS2; stably expressed in SMS1/SMS2-deficient mouse embryonic fibroblasts (ZS2), cell lysate
The experiment can be described thus: HPLC-fluorescence enzyme assay, ZS2 cell lysate. In kind it is biochemical. The conditions noted are these: Path 2: 5 μM C6-NBD-ceramide to NBD-SM; 5 μM C6-NBD-PC present; 37 °C, 30 min preincubation. An excerpt:
HPLC-fluorescence enzyme assay, ZS2 cell lysate on SMS2 (sphingomyelin synthase 2)

Experiment [2] relates to T2, SMS1 (sphingomyelin synthase 1).
T2 construct: gene SGMS1; stably expressed in SMS1/SMS2-deficient mouse embryonic fibroblasts (ZS2), cell lysate
The experiment can be described thus: HPLC-fluorescence enzyme assay, ZS2 cell lysate. The conditions noted are these: 37 °C, 30 min preincubation. In kind it is biochemical. The text has this:
HPLC-fluorescence enzyme assay, ZS2 cell lysate on SMS1 (sphingomyelin synthase 1)

On to `CC(C)=CCC/C(C)=C/CC/C(C)=C/Cc1c(O)cc(C)c(C(=O)O)c1O` [grifolic acid], for which the IC50 in experiment [1] was 2.5 µM; in experiment [2] (read-out: IC50 (μM) / SMS1 / Path 1), 3 µM.
As to `CC(C)=CCC/C(C)=C/CC/C(C)=C/Cc1c(O)cc(C)cc1O` [grifolin], the IC50 in experiment [1] is 3 µM; in experiment [2] (Path 2: 5 μM C6-NBD-ceramide to NBD-SM, 5 μM C6-NBD-PC present), 0.6 µM.
